Converted amounts (≈) assume the structure as drawn. “And” between values parts separate entries of the source, which are not always exact repeats. Identical values can stand only once. One block for each compound: values may come before it.
Assays:
Assay in all cases: ≥ marks a high value that may be exact or a test limit, other limits are often not marked, values filed in µg/mL are converted to µM
Bacillus thuringiensis = test system: Bacillus thuringiensis
Ralstonia solanacearum = test system: Ralstonia solanacearum
Escherichia coli = test system: Escherichia coli
Pseudomonas tolaasii = test system: Pseudomonas tolaasii
[1] = test system: Salmonella typhimurium KCTC 1926
[2] = test system: Pseudomonas aeruginosa KCTC 1637
[3] = test system: Staphylococcus aureus KCTC 1621
[4] = test system: Enterococcus faecium ATCC 51559
[5] = test system: Escherichia coli KCTC 1682
[6] = test system: Bacillus subtilis KCTC 3068
[7] = test system: Enterococcus faecalis KCCM 29212
[8] = test system: Enterococcus faecium KCCM 12118
[9] = test system: Enterococcus faecalis ATCC 51575
[10] = test system: Staphylococcus epidermidis KCTC 1917
[11] = test system: Staphylococcus aureus KCCM 40510
[12] = test system: Staphylococcus aureus ATCC 9144
[13] = test system: Staphylococcus aureus 5118
[14] = test system: Staphylococcus aureus E4049
[15] = test system: Staphylococcus epidermidis ATCC 12228
[16] = test system: Salmonella enterica subsp. arizonae ATCC 13314
Micrococcus luteus A270 = test system: Micrococcus luteus A270
Escherichia coli D31 = test system: Escherichia coli D31
[17] = test system: Pseudomonas aeruginosa ATCC 27853
[18] = test system: Escherichia coli DH5alpha
[19] = test system: Staphylococcus aureus ATCC 29213
[20] = test system: Escherichia coli BL21(DE3)
[21] = test system: Enterococcus faecalis ATCC 29212
Escherichia coli C600 = test system: Escherichia coli C600
Escherichia coli 214 = test system: Escherichia coli 214
Escherichia coli 1057 = test system: Escherichia coli 1057
Microsporum canis = test system: Microsporum canis
Proteus mirabilis = test system: Proteus mirabilis
[22] = test system: Staphylococcus aureus NCTC 10788
Staphylococcus simulans = test system: Staphylococcus simulans
[23] = test system: Escherichia coli NCTC 10418
[24] = test system: Trichophyton mentagrophytes
Staphylococcus aureus = test system: Staphylococcus aureus
[25] = test system: Staphylococcus pseudintermedius MW767056
[26] = test system: Staphylococcus aureus NCTC 12493
[27] = test system: Staphylococcus cohnii MW767053
[28] = test system: Microsporum canis MW768151
Staphylococcus sciuri = test system: Staphylococcus sciuri
[29] = test system: Staphylococcus haemolyticus
[30] = test system: Staphylococcus pseudintermedius
[31] = test system: Staphylococcus aureus ATCC 43300
Pseudomonas aeruginosa = test system: Pseudomonas aeruginosa
Pseudomonas aeruginosa 1 = test system: Pseudomonas aeruginosa 1
Escherichia coli 1 = test system: Escherichia coli 1

- MIC (Bacillus thuringiensis): 1.46 µM (≈ 2.9 µg/mL)
- MIC (Ralstonia solanacearum): 1.05 µM (≈ 2.1 µg/mL)
- MIC (Escherichia coli): 0.402 µM (≈ 0.8 µg/mL)
- MIC (Pseudomonas tolaasii): 1.36 µM (≈ 2.7 µg/mL)
SMILES: CC[C@H](C)[C@H](NC(=O)[C@H](CCCCN)NC(=O)CNC(=O)[C@H](CC(C)C)NC(=O)[C@@H](NC(=O)[C@H](CCCCN)NC(=O)[C@H](CCCCN)NC(=O)[C@H](CC(C)C)NC(=O)[C@H](CC(N)=O)NC(=O)[C@@H](N)CC(C)C)[C@@H](C)CC)C(=O)NCC(=O)N[C@H](C(=O)N[C@@H](CCSC)C(=O)N[C@@H](CC(C)C)C(=O)N[C@@H](CO)C(=O)N[C@@H](Cc1cnc[nH]1)C(=O)N[C@@H](CC(C)C)C(=O)N[C@@H](CC(N)=O)C(=O)O)C(C)C [LNLKKILGKIGVMLSHLN]

- MIC [1]: 7.2 µM (≈ 7.99 µg/mL)
- MIC [2]: 7.2 µM (≈ 7.99 µg/mL)
- MIC [3]: 28.8 µM (≈ 32 µg/mL)
- MIC [4]: 7.2 µM (≈ 7.99 µg/mL)
- MIC [5]: 3.6 µM (≈ 4 µg/mL)
- MIC [6]: 14.4 µM (≈ 16 µg/mL)
- MIC [7]: 28.8 µM (≈ 32 µg/mL)
- MIC [8]: 28.8 µM (≈ 32 µg/mL)
- MIC [9]: ≥ 57.6 µM
- MIC [10]: 3.6 µM (≈ 4 µg/mL)
- MIC [11]: 14.4 µM (≈ 16 µg/mL)
SMILES: CC[C@H](C)[C@H](NC(=O)[C@H](CCCN=C(N)N)NC(=O)[C@H](CC(C)C)NC(=O)[C@@H](N)CC(C)C)C(=O)N[C@@H](C)C(=O)N[C@@H](CC(C)C)C(=O)N[C@@H](CCCN=C(N)N)C(=O)N[C@@H](CCCCN)C(=O)N[C@@H](CCCCN)C(N)=O [LLRIALRKK]

- MIC [12]: 15.9 µM (≈ 35 µg/mL)
- MIC [13]: 1.81 µM (≈ 4 µg/mL)
- MIC [14]: ≥ 250 µM
SMILES: CC[C@H](C)[C@H](NC(=O)[C@H](CC(C)C)NC(=O)CNC(=O)[C@H](CCSC)NC(=O)[C@@H](NC(=O)[C@H](CC(C)C)NC(=O)[C@H](CCC(N)=O)NC(=O)CNC(=O)[C@H](Cc1ccccc1)NC(=O)[C@@H](NC(=O)[C@@H](N)CO)C(C)C)C(C)C)C(=O)N[C@@H](CC(C)C)C(=O)N[C@@H](CO)C(=O)N[C@@H](CO)C(=O)N[C@H](C(=O)N[C@@H](Cc1ccccc1)C(=O)N[C@@H](Cc1ccc(O)cc1)C(=O)N[C@@H](CC(N)=O)C(=O)N[C@@H](CC(=O)O)C(=O)N[C@@H](CC(=O)O)C(=O)O)C(C)C [SVFGQLVMGLILSSVFYNDD]

- MIC [15]: 1.2 µM (≈ 1.77 µg/mL)
- MIC [16]: 2.4 µM (≈ 3.53 µg/mL)
- MIC (Micrococcus luteus A270): 4.7 µM (≈ 6.92 µg/mL)
- MIC (Escherichia coli D31): 2.4 µM (≈ 3.53 µg/mL)
- MIC [17]: 4.7 µM (≈ 6.92 µg/mL)
- MIC [18]: 2.4 µM (≈ 3.53 µg/mL)
- MIC [19]: 1.2 µM (≈ 1.77 µg/mL)
SMILES: CC[C@H](C)[C@H](NC(=O)[C@H](CCC(N)=O)NC(=O)[C@@H](NC(=O)CNC(=O)[C@@H](NC(=O)[C@H](CC(C)C)NC(=O)[C@H](CC(C)C)NC(=O)[C@H](Cc1ccccc1)NC(=O)[C@@H]1CCCN1C(=O)[C@@H](N)[C@@H](C)O)C(C)C)[C@@H](C)O)C(=O)N[C@@H](CC(=O)O)C(=O)N[C@@H](CC(C)C)C(=O)N[C@@H](CCCN=C(N)N)C(=O)O [TPFLLVGTQIDLR]

- MIC [20]: 8 µM (≈ 23.2 µg/mL)
- MIC [21]: > 32 µM
- MIC (Escherichia coli C600): 2 µM and 4 µM
- MIC (Escherichia coli 214): ≥ 64 µM
- MIC (Escherichia coli 1057): 10 µM and 8 µM
SMILES: CC(C)C[C@H](NC(=O)[C@H](CCCN=C(N)N)NC(=O)[C@@H](N)CCCN=C(N)N)C(=O)N[C@@H](CCCN=C(N)N)C(=O)N1CCC[C@H]1C(=O)N[C@@H](CCCN=C(N)N)C(=O)N[C@@H](CCCN=C(N)N)C(=O)N1CCC[C@H]1C(=O)N[C@@H](CCCN=C(N)N)C(=O)N[C@@H](CC(C)C)C(=O)N1CCC[C@H]1C(=O)N[C@@H](CCCN=C(N)N)C(=O)N1CCC[C@H]1C(=O)N[C@@H](CCCN=C(N)N)C(=O)N1CCC[C@H]1C(=O)N[C@@H](CCCN=C(N)N)C(=O)N1CCC[C@H]1C(=O)N[C@@H](CCCN=C(N)N)C(=O)N1CCC[C@H]1C(=O)N[C@@H](CCCN=C(N)N)C(=O)N1CCC[C@H]1C(=O)N[C@@H](CCCN=C(N)N)C(=O)O [RRLRPRRPRLPRPRPRPRPRPR]

- MIC (Microsporum canis): 1.92 µM (≈ 2.83 µg/mL)
- MIC (Proteus mirabilis): ≥ 43.5 µM
- MIC [22]: 2 µM (≈ 2.94 µg/mL)
- MIC (Staphylococcus simulans): 10.9 µM (≈ 16 µg/mL)
- MIC [23]: 7.99 µM (≈ 11.8 µg/mL)
- MIC [24]: 1.36 µM (≈ 2 µg/mL)
- MIC (Staphylococcus aureus): 0.998 µM (≈ 1.47 µg/mL)
- MIC [25]: ≥ 174 µM
- MIC [17]: 2 µM (≈ 2.94 µg/mL)
- MIC [26]: 4 µM (≈ 5.89 µg/mL)
- MIC [27]: ≥ 86.9 µM
- MIC [28]: 0.679 µM (≈ 0.999 µg/mL)
- MIC (Staphylococcus sciuri): ≥ 174 µM
- MIC [30]: ≥ 61.5 µM
- MIC [31]: 0.998 µM (≈ 1.47 µg/mL)
SMILES: CC[C@H](C)[C@H](NC(=O)CNC(=O)[C@H](CO)NC(=O)[C@H](CC(C)C)NC(=O)[C@H](CC(C)C)NC(=O)CN)C(=O)N[C@@H](CC(C)C)C(=O)NCC(=O)N[C@@H](C)C(=O)NCC(=O)N[C@@H](CCCCN)C(=O)N[C@@H](CCCCN)C(=O)N[C@H](C(=O)N[C@H](C(=O)N[C@@H](Cc1ccccc1)C(N)=O)C(C)C)[C@@H](C)CC [GLLSGILGAGKKIVF]
- MIC [29]: ≥ 43.5 µM

- MIC (Pseudomonas aeruginosa): 16 µM (≈ 40.1 µg/mL)
- MIC (Escherichia coli): 1.3 µM (≈ 3.26 µg/mL)
- MIC (Pseudomonas aeruginosa 1): 27 µM (≈ 67.7 µg/mL)
- MIC (Escherichia coli 1): 2.7 µM (≈ 6.77 µg/mL)
SMILES: CC[C@H](C)[C@H](NC(=O)[C@@H](NC(=O)[C@@H]1CCCN1C(=O)[C@H](CO)NC(=O)[C@@H]1CSSC[C@H](NC(=O)[C@H](CCCCN)NC(=O)[C@H](CCCCN)NC(=O)CNC(=O)CNC(=O)CNC(=O)CN)C(=O)N[C@@H](CCCCN)C(=O)N[C@@H](CCCCN)C(=O)N[C@@H](CC(C)C)C(=O)N[C@@H](Cc2ccccc2)C(=O)N[C@@H](CCCCN)C(=O)N[C@@H](CCCCN)C(=O)N1)C(C)C)C(=O)N1CCC[C@H]1C(=O)N[C@@H](CC(C)C)C(=O)N[C@@H](CC(C)C)C(=O)N[C@@H](Cc1cnc[nH]1)C(=O)N[C@@H](CC(C)C)C(=O)NCC(=O)O [GGGGKKCKKLFKKCSPVIPLLHLG]

— DBAASP
